# Measurements published in patent US5753617A, “Peptide inhibitors of cellular adhesion” (Centocor, Inc., priority 1995, dated 1998).
# Read-outs that look alike come from different tables or passages of the source. Where a SMILES comes first, the peptide text is derived from it. Bridges are numbered along the chain shown (N, C = ends). [ ]: non-standard residue; d: D form. The star is where a group is joined. NHBu = CCCCN*
# What was measured:
# P-selectin = target: T1, P-selectin (Homo sapiens, UniProt P16109); experiment: Inhibition of human neutrophil adhesion to purified P-selectin immobilized on plastic wells; assay type: cell-based; conditions: inhibiting the binding of human neutrophils to P-selectin
# T1 construct: P-selectin is isolated from human platelet lysates; from tissue; host or cells: human platelets (outdated platelet packs from a blood bank)
# T1 sequence (P16109 42-830): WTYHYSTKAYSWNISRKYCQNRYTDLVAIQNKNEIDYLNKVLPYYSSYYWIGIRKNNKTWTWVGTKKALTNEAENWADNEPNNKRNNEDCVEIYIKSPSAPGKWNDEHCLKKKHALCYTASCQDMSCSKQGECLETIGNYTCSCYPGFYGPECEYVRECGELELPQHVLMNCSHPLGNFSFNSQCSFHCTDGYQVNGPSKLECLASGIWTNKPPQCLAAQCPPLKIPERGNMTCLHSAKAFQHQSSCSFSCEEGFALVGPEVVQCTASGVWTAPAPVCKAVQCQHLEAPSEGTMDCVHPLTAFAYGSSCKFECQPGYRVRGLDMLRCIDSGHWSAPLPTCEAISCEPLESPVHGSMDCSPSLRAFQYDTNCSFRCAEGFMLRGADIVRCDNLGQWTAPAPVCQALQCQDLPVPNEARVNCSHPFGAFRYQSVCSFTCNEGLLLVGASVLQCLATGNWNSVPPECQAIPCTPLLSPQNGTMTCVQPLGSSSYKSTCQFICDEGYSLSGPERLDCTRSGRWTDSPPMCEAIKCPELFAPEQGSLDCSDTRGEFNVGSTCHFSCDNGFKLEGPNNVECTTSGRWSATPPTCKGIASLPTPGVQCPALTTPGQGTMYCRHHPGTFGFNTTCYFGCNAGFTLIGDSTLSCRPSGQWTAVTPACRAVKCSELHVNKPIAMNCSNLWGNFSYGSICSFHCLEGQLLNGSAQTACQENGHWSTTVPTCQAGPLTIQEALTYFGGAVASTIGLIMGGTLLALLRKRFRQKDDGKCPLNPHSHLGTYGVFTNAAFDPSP
# Procedure, shortened: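 Isolated human neutrophils (2×10^5 per well) in HBSS with Ca2+/Mg2+ and HSA added to wells coated overnight at 4° C with platelet-derived P-selectin (5 micrograms/mL), HSA-blocked; 20 min at 22° C. Nonadherent cells removed by inverted centrifugation at 150 g; adherent cells quantified by myeloperoxidase activity.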
# [1] = disulfide bond, water
Structure (SMILES),IC50 (P-selectin) [µM],also measured
CC(C)[C@H](NC(=O)[C@H](Cc1c[nH]c2ccccc12)NC(=O)[C@@H](NC(=O)[C@H](Cc1c[nH]c2ccccc12)NC(=O)[C@@H]1CSSC[C@H](NC(=O)[C@@H](N)CCCCN)C(=O)NCC(=O)NCC(=O)N1)[C@@H](C)O)C(N)=O [(27)] (H-KCGGCWTWV-NH2; disulfide 2-5),22,"ring closure, yield of all isomers ([1]; from CC(C)[C@H](NC(=O)[C@H](Cc1c[nH]c2ccccc12)NC(=O)[C@@H](NC(=O)[C@H](Cc1c[nH]c2ccccc12)NC(=O)[C@H](CS)NC(=O)CNC(=O)CNC(=O)[C@H](CS)NC(=O)[C@@H](N)CCCCN)[C@@H](C)O)C(N)=O, K3Fe(CN)6/NH4OH (half) and DMSO (half), 0.37 mM, 16.0 h): 10.9%"
CC[C@@H](C)[C@H]1NC(=O)CNC(=O)[C@H](NC(=O)[C@@H](CCCCN)NC(=O)[C@H](N)CCCNC(=N)N)CSSC[C@H](C(=O)N[C@H](Cc2c[nH]c3ccccc23)C(=O)N[C@@H](C(=O)N[C@H](Cc2c[nH]c3ccccc23)C(=O)N[C@@H](C(N)=O)C(C)C)[C@H](C)O)NC1=O [(52)] (H-[dR][dK][dC]G[dI][dC][dW][dT][dW][dV]-NH2; disulfide 3-6),10.3,"ring closure, yield of all isomers ([1]; from CC[C@@H](C)[C@@H](NC(=O)CNC(=O)[C@@H](CS)NC(=O)[C@@H](CCCCN)NC(=O)[C@H](N)CCCNC(=N)N)C(=O)N[C@H](CS)C(=O)N[C@H](Cc1c[nH]c2ccccc12)C(=O)N[C@@H](C(=O)N[C@H](Cc1c[nH]c2ccccc12)C(=O)N[C@@H](C(N)=O)C(C)C)[C@H](C)O, DMSO, 0.341 mM, 25.0 °C, 72.0 h): 16.6%"
CC(C)[C@@H](NC(=O)[C@@H](Cc1c[nH]c2ccccc12)NC(=O)[C@H](NC(=O)[C@@H](Cc1c[nH]c2ccccc12)NC(=O)[C@H]1CSSC[C@@H](NC(=O)[C@@H](CCCCN)NC(=O)[C@H](N)CCCNC(=N)N)C(=O)NCC(=O)N[C@@H](CCC(=O)O)C(=O)N1)[C@H](C)O)C(N)=O [(66)] (H-[dR][dK][dC]GE[dC][dW][dT][dW][dV]-NH2; disulfide 3-6),287,"ring closure, yield of all isomers ([1]; from CC(C)[C@@H](NC(=O)[C@@H](Cc1c[nH]c2ccccc12)NC(=O)[C@H](NC(=O)[C@@H](Cc1c[nH]c2ccccc12)NC(=O)[C@@H](CS)NC(=O)[C@H](CCC(=O)O)NC(=O)CNC(=O)[C@@H](CS)NC(=O)[C@@H](CCCCN)NC(=O)[C@H](N)CCCNC(=N)N)[C@H](C)O)C(N)=O, Cu wire, NH4OH, 3.16 mM, 20.0 h): 7.4%"
CCCCNC(=O)[C@H](CCC(N)=O)NC(=O)[C@@H](Cc1c[nH]c2ccccc12)NC(=O)[C@H](NC(=O)[C@@H](Cc1c[nH]c2ccccc12)NC(=O)[C@H]1CSSC[C@@H](NC(=O)[C@@H](CCCCN)NC(=O)[C@H](N)CCCNC(=N)N)C(=O)NCC(=O)N[C@@H](Cc2ccccc2)C(=O)N1)[C@H](C)O [(102)] (H-[dR][dK][dC]GF[dC][dW][dT][dW]Q-NHBu; disulfide 3-6),8,"ring closure, yield of all isomers ([1]; from CCCCNC(=O)[C@H](CCC(N)=O)NC(=O)[C@@H](Cc1c[nH]c2ccccc12)NC(=O)[C@H](NC(=O)[C@@H](Cc1c[nH]c2ccccc12)NC(=O)[C@@H](CS)NC(=O)[C@H](Cc1ccccc1)NC(=O)CNC(=O)[C@@H](CS)NC(=O)[C@@H](CCCCN)NC(=O)[C@H](N)CCCNC(=N)N)[C@H](C)O, DMSO, 0.681 mM): 21.5%"
CC[C@@H](C)[C@H]1NC(=O)[C@H](NC(=O)[C@@H](CCCCN)NC(=O)[C@H](N)CCCNC(=N)N)CSSC[C@H](C(=O)N[C@H](Cc2c[nH]c3ccccc23)C(=O)N[C@@H](C(=O)N[C@H](Cc2c[nH]c3ccccc23)C(=O)N[C@@H](C(N)=O)C(C)C)[C@H](C)O)NC(=O)[C@H]([C@@H](C)CC)NC1=O [(92)] (H-[dR][dK][dC][dI]I[dC][dW][dT][dW][dV]-NH2; disulfide 3-6),2.4,"ring closure, yield of all isomers ([1]; from CC[C@@H](C)[C@@H](NC(=O)[C@@H](CS)NC(=O)[C@@H](CCCCN)NC(=O)[C@H](N)CCCNC(=N)N)C(=O)N[C@H](C(=O)N[C@H](CS)C(=O)N[C@H](Cc1c[nH]c2ccccc12)C(=O)N[C@@H](C(=O)N[C@H](Cc1c[nH]c2ccccc12)C(=O)N[C@@H](C(N)=O)C(C)C)[C@H](C)O)[C@@H](C)CC, DMSO, 0.0765 mM, 24.0 h): 17.5%"
CC[C@@H](C)[C@H]1NC(=O)[C@H](NC(=O)[C@@H](CCCCN)NC(=O)[C@H](N)CCCNC(=N)N)CSSC[C@H](C(=O)N[C@H](Cc2c[nH]c3ccccc23)C(=O)N[C@@H](C(=O)N[C@H](Cc2c[nH]c3ccccc23)C(=O)N[C@@H](C(N)=O)C(C)C)[C@H](C)O)NC(=O)[C@H](Cc2ccccc2)NC1=O [(93)] (H-[dR][dK][dC][dI]F[dC][dW][dT][dW][dV]-NH2; disulfide 3-6),67.5,"ring closure, yield of all isomers ([1]; from CC[C@@H](C)[C@@H](NC(=O)[C@@H](CS)NC(=O)[C@@H](CCCCN)NC(=O)[C@H](N)CCCNC(=N)N)C(=O)N[C@@H](Cc1ccccc1)C(=O)N[C@H](CS)C(=O)N[C@H](Cc1c[nH]c2ccccc12)C(=O)N[C@@H](C(=O)N[C@H](Cc1c[nH]c2ccccc12)C(=O)N[C@@H](C(N)=O)C(C)C)[C@H](C)O, DMSO, 0.671 mM, 16.0 h): 22.3%"
CC(C)[C@@H](NC(=O)[C@@H](Cc1c[nH]c2ccccc12)NC(=O)[C@H](NC(=O)[C@@H](Cc1c[nH]c2ccccc12)NC(=O)[C@H]1CSSC[C@@H](NC(=O)[C@@H](CCCCN)NC(=O)[C@H](N)CCCNC(=N)N)C(=O)NCC(=O)NCC(=O)N1)[C@H](C)O)C(N)=O [(25)] (H-[dR][dK][dC]GG[dC][dW][dT][dW][dV]-NH2; disulfide 3-6),17,"ring closure, yield of all isomers ([1]; from CC(C)[C@@H](NC(=O)[C@@H](Cc1cn(C=O)c2ccccc12)NC(=O)[C@H](NC(=O)[C@@H](Cc1cn(C=O)c2ccccc12)NC(=O)[C@@H](CS)NC(=O)CNC(=O)CNC(=O)[C@@H](CS)NC(=O)[C@@H](CCCCN)NC(=O)[C@H](N)CCCNC(=N)N)[C@H](C)O)C(N)=O, DMSO, 1.4 mM, 16.0 h, 2 steps): 2.4%"
CC(C)C[C@@H]1NC(=O)CNC(=O)[C@H](NC(=O)[C@@H](CCCCN)NC(=O)[C@H](N)CCCNC(=N)N)CSSC[C@H](C(=O)N[C@H](Cc2c[nH]c3ccccc23)C(=O)N[C@@H](C(=O)N[C@H](Cc2c[nH]c3ccccc23)C(=O)N[C@@H](C(N)=O)C(C)C)[C@H](C)O)NC1=O [(69)] (H-[dR][dK][dC]GL[dC][dW][dT][dW][dV]-NH2; disulfide 3-6),146,"ring closure, yield of all isomers ([1]; from CC(C)C[C@H](NC(=O)CNC(=O)[C@@H](CS)NC(=O)[C@@H](CCCCN)NC(=O)[C@H](N)CCCNC(=N)N)C(=O)N[C@H](CS)C(=O)N[C@H](Cc1c[nH]c2ccccc12)C(=O)N[C@@H](C(=O)N[C@H](Cc1c[nH]c2ccccc12)C(=O)N[C@@H](C(N)=O)C(C)C)[C@H](C)O, DMSO, 0.252 mM, 25.0 °C, 96.0 h): 8.3%"
CC(C)[C@@H](NC(=O)[C@@H](Cc1c[nH]c2ccccc12)NC(=O)[C@H](NC(=O)[C@@H](Cc1c[nH]c2ccccc12)NC(=O)[C@H]1CSSC[C@@H](NC(=O)[C@@H](CCCCN)NC(=O)[C@H](N)CCCNC(=N)N)C(=O)NCC(=O)N[C@@H](CCCCN)C(=O)N1)[C@H](C)O)C(N)=O [(71)] (H-[dR][dK][dC]GK[dC][dW][dT][dW][dV]-NH2; disulfide 3-6),2000,"ring closure, yield of all isomers ([1]; from CC(C)[C@@H](NC(=O)[C@@H](Cc1c[nH]c2ccccc12)NC(=O)[C@H](NC(=O)[C@@H](Cc1c[nH]c2ccccc12)NC(=O)[C@@H](CS)NC(=O)[C@H](CCCCN)NC(=O)CNC(=O)[C@@H](CS)NC(=O)[C@@H](CCCCN)NC(=O)[C@H](N)CCCNC(=N)N)[C@H](C)O)C(N)=O, DMSO, 0.181 mM, 72.0 h): 10.4%"
CC(C)C[C@H]1NC(=O)CNC(=O)[C@H](NC(=O)[C@@H](CCCCN)NC(=O)[C@H](N)CCCNC(=N)N)CSSC[C@H](C(=O)N[C@H](Cc2c[nH]c3ccccc23)C(=O)N[C@@H](C(=O)N[C@H](Cc2c[nH]c3ccccc23)C(=O)N[C@@H](C(N)=O)C(C)C)[C@H](C)O)NC1=O [(53)] (H-[dR][dK][dC]G[dL][dC][dW][dT][dW][dV]-NH2; disulfide 3-6),18.7,"ring closure, yield of all isomers ([1]; from CC(C)C[C@@H](NC(=O)CNC(=O)[C@@H](CS)NC(=O)[C@@H](CCCCN)NC(=O)[C@H](N)CCCNC(=N)N)C(=O)N[C@H](CS)C(=O)N[C@H](Cc1c[nH]c2ccccc12)C(=O)N[C@@H](C(=O)N[C@H](Cc1c[nH]c2ccccc12)C(=O)N[C@@H](C(N)=O)C(C)C)[C@H](C)O, DMSO, 0.252 mM, 25.0 °C, 48.0 h): 17.4%"
